From US20220289794A1, “SYNTHETIC ANTIMICROBIAL PEPTIDES” (priority 2019, published 2022)
≈ marks a conversion by molar mass, not a printed value. Where two headings read alike, the source gives them in different places. Non-standard residues stand in square brackets, D forms with d. Residues, ends and D or L forms follow the SMILES beside them. 2Nal = N[C@@H](Cc1ccc2ccccc2c1)C(=O)O; d2Nal = N[C@H](Cc1ccc2ccccc2c1)C(=O)O

Legend:
in vitro = details: human, fresh human red blood cells (washed), pH 7.4
Procedure: Hemolytic Assay. We investigated the hemolytic effect (hemolytic assay) of the compounds on fresh human red blood cells to determine the cytotoxicity of the compounds. The hemolytic assay was conducted by serial dilution using 1% Triton X, 0.2% Triton X and PBS buffer pH 7.4 as controls. […] 3 mL of the fresh blood sample was washed severally by adding about 10 mL PBS buffer pH 7.4 and centrifuge at 4000 G until the supernatant was cleared. The washed blood sample was diluted to 20 mL volume to be used in the study. An aliquot of 190 μL blood sample was added to 10 μL compound sample in an Eppendorf tube and incubated for 30 min. After incubation, it was centrifuged at 4000 G for 5 min. 100 μL supernatant aliquot was diluted with 1 mL PBS buffer, and the absorbance was measured at 567 nm for the sample. % hemolysis is calculated as follows:
Where AX is the absorbance at various serial concentrations A0 absorbance of PBS buffer pH 7.4 AX absorbance of 0.2% Triton X control equivalent to 100%

[1] = tested on: Escherichia coli (ATCC 25922); details: ATCC 25922
S. aureus ATCC 29213 = details: ATCC 29213
[2] = tested on: Pseudomonas aeruginosa (ATCC 27883)
[3] = tested on: Methicillin-resistant Staphylococcus aureus MRSA (ATCC BAA-1556); details: ATCC BAA-1556

Row | SMILES | HC50 at 0.5 h (in vitro) | MIC E. coli ATCC 25922 [1] | MIC S. aureus ATCC 29213 (S. aureus ATCC 29213) | MIC P. aeruginosa ATCC 27883 ([2]; ATCC 27883) | MIC MRSA ATCC BAA-1556 [3] | MIC P. aeruginosa ATCC 27883 ([2]; P. aeruginosa ATCC 27883)
1 | N=C(N)NCCC[C@@H](N)C(=O)N[C@@H](CCCNC(=N)N)C(=O)N[C@H](CCCNC(=N)N)C(=O)N[C@@H](CCCNC(=N)N)C(=O)N[C@@H](Cc1c[nH]c2ccccc12)C(=O)N[C@H](Cc1ccc2ccccc2c1)C(=O)N[C@H](Cc1ccc2ccccc2c1)C(=O)O [IFX-110-1] (H-[dR]R[dR]RW[d2Nal][d2Nal]-OH) | 330 µg/mL | 25 µg/mL (≈ 20.4 µM) | 3.1 µg/mL (≈ 2.53 µM) | 25 µg/mL (≈ 20.4 µM) | 3.1 µg/mL (≈ 2.53 µM) | 
2 | N=C(N)NCCC[C@H](NC(=O)[C@@H](CCCNC(=N)N)NC(=O)[C@@H](N)CCCNC(=N)N)C(=O)N[C@H](CCCNC(=N)N)C(=O)N[C@@H](Cc1c[nH]c2ccccc12)C(=O)N[C@H](Cc1ccc2ccccc2c1)C(=O)N[C@H](Cc1ccc2ccccc2c1)C(=O)O [IFX-111-1] (H-R[dR]R[dR]W[d2Nal][d2Nal]-OH) | 310 µg/mL | 25 µg/mL (≈ 20.4 µM) | 3.1 µg/mL (≈ 2.53 µM) | 25 µg/mL (≈ 20.4 µM) | 3.1 µg/mL (≈ 2.53 µM) | 
3 | N=C(N)NCCC[C@@H]1NC(=O)[C@H](CCCNC(=N)N)NC(=O)[C@H](CCCNC(=N)N)NC(=O)[C@@H](Cc2ccc3ccccc3c2)NC(=O)[C@@H](Cc2ccc3ccccc3c2)NC(=O)[C@H](Cc2c[nH]c3ccccc23)NC(=O)[C@H](CCCNC(=N)N)NC1=O [IFX-112, c[Arg-Arg-Arg-Arg-Trp-naI-naI]] (cyclo(RRRRW[d2Nal][d2Nal])) | 295 µg/mL | 12.5 µg/mL (≈ 10.4 µM) | 3.1 µg/mL (≈ 2.57 µM) |  | 1.5 µg/mL (≈ 1.24 µM) | 12.5 µg/mL (≈ 10.4 µM)
4 | N=C(N)NCCC[C@H](NC(=O)[C@H](CCCNC(=N)N)NC(=O)[C@H](CCCNC(=N)N)NC(=O)[C@@H](N)CCCNC(=N)N)C(=O)N[C@@H](Cc1c[nH]c2ccccc12)C(=O)N[C@H](Cc1ccc2ccccc2c1)C(=O)N[C@H](Cc1ccc2ccccc2c1)C(=O)O [IFX-112-1] (H-RRRRW[d2Nal][d2Nal]-OH) | 370 µg/mL | 12.5 µg/mL (≈ 10.2 µM) | 6.2 µg/mL (≈ 5.07 µM) | 25 µg/mL (≈ 20.4 µM) | 3.1 µg/mL (≈ 2.53 µM) | 
5 | N=C(N)NCCC[C@H]1NC(=O)[C@H](Cc2ccc3ccccc3c2)NC(=O)[C@H](Cc2ccc3ccccc3c2)NC(=O)[C@H](Cc2c[nH]c3ccccc23)NC(=O)[C@@H](CCCNC(=N)N)NC(=O)[C@@H](CCCNC(=N)N)NC(=O)[C@@H](CCCNC(=N)N)NC1=O [IFX-113, c[arg-arg-arg-arg-Trp-NaI-NaI]] (cyclo([dR][dR][dR][dR]W[2Nal][2Nal])) | 365 µg/mL | 12.5 µg/mL (≈ 10.4 µM) | 3.1 µg/mL (≈ 2.57 µM) |  | 1.5 µg/mL (≈ 1.24 µM) | 12.5 µg/mL (≈ 10.4 µM)
6 | N=C(N)NCCC[C@@H](N)C(=O)N[C@H](CCCNC(=N)N)C(=O)N[C@H](CCCNC(=N)N)C(=O)N[C@H](CCCNC(=N)N)C(=O)N[C@@H](Cc1c[nH]c2ccccc12)C(=O)N[C@@H](Cc1ccc2ccccc2c1)C(=O)N[C@@H](Cc1ccc2ccccc2c1)C(=O)O [IFX-113-1] (H-[dR][dR][dR][dR]W[2Nal][2Nal]-OH) | 300 µg/mL | 12.5 µg/mL (≈ 10.2 µM) | 6.2 µg/mL (≈ 5.07 µM) | 12.5 µg/mL (≈ 10.2 µM) | 6.2 µg/mL (≈ 5.07 µM) | 
7 | N=C(N)NCCC[C@@H]1NC(=O)[C@H](CCCNC(=N)N)NC(=O)[C@H](CCCNC(=N)N)NC(=O)[C@@H](Cc2ccc3ccccc3c2)NC(=O)[C@@H](Cc2ccc3ccccc3c2)NC(=O)[C@@H](Cc2c[nH]c3ccccc23)NC(=O)[C@H](CCCNC(=N)N)NC1=O [IFX-114, c[Arg-Arg-Arg-Arg-trp-naI-naI]] (cyclo(RRRR[dW][d2Nal][d2Nal])) | 380 µg/mL | 12.5 µg/mL (≈ 10.4 µM) | 3.1 µg/mL (≈ 2.57 µM) | 25 µg/mL (≈ 20.7 µM) | 3.1 µg/mL (≈ 2.57 µM) | 
8 | N=C(N)NCCC[C@H]1NC(=O)[C@@H](CCCNC(=N)N)NC(=O)[C@@H](CCCNC(=N)N)NC(=O)[C@@H](Cc2ccc3ccccc3c2)NC(=O)[C@@H](Cc2ccc3ccccc3c2)NC(=O)[C@@H](Cc2c[nH]c3ccccc23)NC(=O)[C@@H](CCCNC(=N)N)NC1=O [IFX-115, c[arg-arg-arg-arg-trp-naI-naI]] (cyclo([dR][dR][dR][dR][dW][d2Nal][d2Nal])) | 360 µg/mL | 12.5 µg/mL (≈ 10.4 µM) | 3.1 µg/mL (≈ 2.57 µM) | 25 µg/mL (≈ 20.7 µM) | 3.1 µg/mL (≈ 2.57 µM) | 
9 | N=C(N)NCCC[C@H]1NC(=O)[C@H](Cc2ccc3ccccc3c2)NC(=O)[C@H](Cc2ccc3ccccc3c2)NC(=O)[C@@H](Cc2c[nH]c3ccccc23)NC(=O)[C@@H](CCCNC(=N)N)NC(=O)[C@@H](CCCNC(=N)N)NC(=O)[C@@H](CCCNC(=N)N)NC1=O [IFX-122, c[arg-arg-arg-arg-trp-NaI-NaI]] (cyclo([2Nal][2Nal][dR][dR][dR][dR][dW])) | 220 µg/mL | 32 µg/mL (≈ 26.5 µM) | 3.1 µg/mL (≈ 2.57 µM) | 32 µg/mL (≈ 26.5 µM) | 3.1 µg/mL (≈ 2.57 µM) | 
10 | N=C(N)NCCC[C@H]1NC(=O)[C@H](Cc2ccc3ccccc3c2)NC(=O)[C@H](Cc2ccc3ccccc3c2)NC(=O)[C@@H](Cc2c[nH]c3ccccc23)NC(=O)[C@@H](CCCNC(=N)N)NC(=O)[C@@H](CCCNC(=N)N)NC(=O)[C@@H](CCCNC(=N)N)NC(=O)[C@@H](CCCNC(=N)N)NC1=O [IFX-123, c[arg-arg-arg-arg-arg-trp-NaI-NaI]] (cyclo([2Nal][2Nal][dR][dR][dR][dR][dR][dW])) | 190 µg/mL | 16 µg/mL (≈ 11.8 µM) | 3.1 µg/mL (≈ 2.28 µM) | 16 µg/mL (≈ 11.8 µM) | 3.1 µg/mL (≈ 2.28 µM) | 
11 | N=C(N)NCCC[C@H]1NC(=O)[C@@H](CCCNC(=N)N)NC(=O)[C@@H](CCCNC(=N)N)NC(=O)[C@@H](Cc2ccc3ccccc3c2)NC(=O)[C@@H](Cc2ccc3ccccc3c2)NC(=O)[C@@H](Cc2c[nH]c3ccccc23)NC(=O)[C@@H](CCCNC(=N)N)NC(=O)[C@@H](CCCNC(=N)N)NC1=O [IFX-124, c[arg-arg-arg-arg-arg-trp-naI-naI]] (cyclo([d2Nal][d2Nal][dR][dR][dR][dR][dR][dW])) | 410 µg/mL | 16 µg/mL (≈ 11.8 µM) | 3.1 µg/mL (≈ 2.28 µM) | 16 µg/mL (≈ 11.8 µM) | 3.1 µg/mL (≈ 2.28 µM) | 
12 | N=C(N)NCCC[C@@H]1NC(=O)[C@H](CCCNC(=N)N)NC(=O)[C@@H](Cc2ccc3ccccc3c2)NC(=O)[C@@H](Cc2ccc3ccccc3c2)NC(=O)[C@H](Cc2c[nH]c3ccccc23)NC(=O)[C@@H](CCCNC(=N)N)NC(=O)[C@@H](CCCNC(=N)N)NC(=O)[C@H](CCCNC(=N)N)NC1=O [IFX-125, c[Arg-Arg-Arg-arg-arg-Trp-naI-naI]] (cyclo(RRR[dR][dR]W[d2Nal][d2Nal])) | 485 µg/mL | 16 µg/mL (≈ 11.8 µM) | 3.1 µg/mL (≈ 2.28 µM) | 32 µg/mL (≈ 23.5 µM) | 3.1 µg/mL (≈ 2.28 µM) | 
13 | NCCCC[C@@H]1NC(=O)[C@H](CCCCN)NC(=O)[C@H](CCCCN)NC(=O)[C@H](Cc2ccc3ccccc3c2)NC(=O)[C@H](Cc2ccc3ccccc3c2)NC(=O)[C@H](Cc2c[nH]c3ccccc23)NC(=O)[C@H](CCCCN)NC1=O [IFX-126, c[Lys-Lys-Lys-Lys-Trp-NaI-NaI]] (cyclo([2Nal][2Nal]KKKKW)) | 610 µg/mL | 64 µg/mL (≈ 58.5 µM) | 12.5 µg/mL (≈ 11.4 µM) | 128 µg/mL (≈ 117 µM) | 12.5 µg/mL (≈ 11.4 µM) | 
14 | NCCCC[C@@H]1NC(=O)[C@H](CCCCN)NC(=O)[C@H](CCCCN)NC(=O)[C@@H](Cc2ccc3ccccc3c2)NC(=O)[C@@H](Cc2ccc3ccccc3c2)NC(=O)[C@H](Cc2c[nH]c3ccccc23)NC(=O)[C@H](CCCCN)NC1=O [IFX-127, c[Lys-Lys-Lys-Lys-Trp-naI-naI]] (cyclo(KKKKW[d2Nal][d2Nal])) | 540 µg/mL | 64 µg/mL (≈ 58.5 µM) | 6.2 µg/mL (≈ 5.67 µM) | 128 µg/mL (≈ 117 µM) | 6.2 µg/mL (≈ 5.67 µM) | 
15 | NCCCC[C@@H]1NC(=O)[C@@H](CCCCN)NC(=O)[C@H](CCCCN)NC(=O)[C@@H](CCCCN)NC(=O)[C@@H](Cc2ccc3ccccc3c2)NC(=O)[C@@H](Cc2ccc3ccccc3c2)NC(=O)[C@H](Cc2c[nH]c3ccccc23)NC1=O [IFX-128, c[lys-Lys-lys-Lys-Trp-naI-naI]] (cyclo(KW[d2Nal][d2Nal][dK]K[dK])) | 590 µg/mL | 64 µg/mL (≈ 58.5 µM) | 6.2 µg/mL (≈ 5.67 µM) | 64 µg/mL (≈ 58.5 µM) | 6.2 µg/mL (≈ 5.67 µM) | 
